{
  "source": "ChEMBL document CHEMBL1201862",
  "about": "“PubChem BioAssay data set” (2004)",
  "assay_in_all_cases": "NCI-60 cell line screen, 48 h",
  "key": {"SK-MEL-5": {"test_system": "SK-MEL-5"}, "K562": {"test_system": "K562"}, "LXFL 529": {"test_system": "LXFL 529"}, "DLD-1": {"test_system": "DLD-1"}, "M14": {"test_system": "M14"}, "SR": {"test_system": "SR"}, "SK-MEL-2": {"test_system": "SK-MEL-2"}, "SN12C": {"test_system": "SN12C"}, "NCI-H226": {"test_system": "NCI-H226"}, "DMS-273": {"test_system": "DMS-273"}, "HL-60": {"test_system": "HL-60"}, "NCI-H23": {"test_system": "NCI-H23"}, "NCI-H522": {"test_system": "NCI-H522"}, "SF-539": {"test_system": "SF-539"}, "EKVX": {"test_system": "EKVX"}, "OVCAR-3": {"test_system": "OVCAR-3"}, "TK-10": {"test_system": "TK-10"}, "CAKI-1": {"test_system": "CAKI-1"}, "HOP-92": {"test_system": "HOP-92"}, "M19-MEL": {"test_system": "M19-MEL"}, "SW-620": {"test_system": "SW-620"}, "XF498": {"test_system": "XF498"}, "SK-MEL-28": {"test_system": "SK-MEL-28"}, "786-0": {"test_system": "786-0"}, "KM12": {"test_system": "KM12"}, "U-251": {"test_system": "U-251"}, "LOX IMVI": {"test_system": "LOX IMVI"}, "SNB-75": {"test_system": "SNB-75"}, "CCRF-CEM": {"test_system": "CCRF-CEM"}, "HCT-116": {"test_system": "HCT-116"}, "ACHN": {"test_system": "ACHN"}, "KM-20L2": {"test_system": "KM-20L2"}, "IGROV-1": {"test_system": "IGROV-1"}, "SF-295": {"test_system": "SF-295"}, "MOLT-4": {"test_system": "MOLT-4"}, "A549": {"test_system": "A549"}, "RPMI-8226": {"test_system": "RPMI-8226"}, "SF-268": {"test_system": "SF-268"}, "UO-31": {"test_system": "UO-31"}, "UACC-257": {"test_system": "UACC-257"}, "SK-OV-3": {"test_system": "SK-OV-3"}, "HCT-15": {"test_system": "HCT-15"}, "HT-29": {"test_system": "HT-29"}, "Malme-3M": {"test_system": "Malme-3M"}, "UACC-62": {"test_system": "UACC-62"}, "SNB-78": {"test_system": "SNB-78"}},
  "note": "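Interpolation was linear, between the two tested concentrations surrounding the appropriate level; five concentrations were tested over 48 hours in 96-well plates. At the GI50, growth is halved.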 The source made the active and inactive calls. Rule as the data show it: active = GI50 up to about 1.1 µM and inactive = higher.",
  "data": [
    {"smiles": "COc1ccc(/C(C#N)=C2/O/C(=N/N)C(c3ccc(OC)c(OC)c3)C2=O)cc1OC", "note": "(stereo unspecified)", "values": [
      {"measurement": "GI50", "setting": "SK-MEL-5", "value": "> 100 µM (inactive)"},
      {"measurement": "GI50", "setting": "K562", "value": "> 100 µM (inactive)"},
      {"measurement": "GI50", "setting": "LXFL 529", "value": "> 100 µM (inactive)"},
      {"measurement": "GI50", "setting": "DLD-1", "value": "> 100 µM (inactive)"},
      {"measurement": "GI50", "setting": "M14", "value": "> 100 µM (inactive)"},
      {"measurement": "GI50", "setting": "SR", "value": "> 100 µM (inactive)"},
      {"measurement": "GI50", "setting": "SK-MEL-2", "value": "> 100 µM (inactive)"},
      {"measurement": "GI50", "setting": "SN12C", "value": "> 100 µM (inactive)"},
      {"measurement": "GI50", "setting": "NCI-H226", "value": "> 100 µM (inactive)"},
      {"measurement": "GI50", "setting": "DMS-273", "value": "> 100 µM (inactive)"},
      {"measurement": "GI50", "setting": "HL-60", "value": "> 100 µM (inactive)"},
      {"measurement": "GI50", "setting": "NCI-H23", "value": "> 100 µM (inactive)"},
      {"measurement": "GI50", "setting": "NCI-H522", "value": "> 100 µM (inactive)"},
      {"measurement": "GI50", "setting": "SF-539", "value": "> 100 µM (inactive)"},
      {"measurement": "GI50", "setting": "EKVX", "value": "> 100 µM (inactive)"},
      {"measurement": "GI50", "setting": "OVCAR-3", "value": "> 100 µM (inactive)"},
      {"measurement": "GI50", "setting": "TK-10", "value": "> 100 µM (inactive)"},
      {"measurement": "GI50", "setting": "CAKI-1", "value": "> 100 µM (inactive)"},
      {"measurement": "GI50", "setting": "HOP-92", "value": "> 100 µM (inactive)"},
      {"measurement": "GI50", "setting": "M19-MEL", "value": "> 100 µM (inactive)"},
      {"measurement": "GI50", "setting": "SW-620", "value": "> 100 µM (inactive)"},
      {"measurement": "GI50", "setting": "XF498", "value": "> 100 µM (inactive)"},
      {"measurement": "GI50", "setting": "SK-MEL-28", "value": "> 100 µM (inactive)"},
      {"measurement": "GI50", "setting": "786-0", "value": "> 100 µM (inactive)"},
      {"measurement": "GI50", "setting": "KM12", "value": "> 100 µM (inactive)"},
      {"measurement": "GI50", "setting": "U-251", "value": "> 100 µM (inactive)"},
      {"measurement": "GI50", "setting": "LOX IMVI", "value": "> 100 µM (inactive)"},
      {"measurement": "GI50", "setting": "SNB-75", "value": "> 100 µM (inactive)"},
      {"measurement": "GI50", "setting": "CCRF-CEM", "value": "> 100 µM (inactive)"},
      {"measurement": "GI50", "setting": "HCT-116", "value": "> 100 µM (inactive)"},
      {"measurement": "GI50", "setting": "ACHN", "value": "> 100 µM (inactive)"},
      {"measurement": "GI50", "setting": "KM-20L2", "value": "> 100 µM (inactive)"},
      {"measurement": "GI50", "setting": "IGROV-1", "value": "> 100 µM (inactive)"},
      {"measurement": "GI50", "setting": "SF-295", "value": "> 100 µM (inactive)"},
      {"measurement": "GI50", "setting": "MOLT-4", "value": "> 100 µM (inactive)"},
      {"measurement": "GI50", "setting": "A549", "value": "> 100 µM (inactive)"},
      {"measurement": "GI50", "setting": "RPMI-8226", "value": "> 100 µM (inactive)"},
      {"measurement": "GI50", "setting": "SF-268", "value": "> 100 µM (inactive)"},
      {"measurement": "GI50", "setting": "UO-31", "value": "> 100 µM (inactive)"},
      {"measurement": "GI50", "setting": "UACC-257", "value": "> 100 µM (inactive)"},
      {"measurement": "GI50", "setting": "SK-OV-3", "value": "> 100 µM (inactive)"},
      {"measurement": "GI50", "setting": "HCT-15", "value": "> 100", "unit": "µM"},
      {"measurement": "GI50", "setting": "HT-29", "value": "> 100 µM (inactive)"},
      {"measurement": "GI50", "setting": "Malme-3M", "value": "> 100 µM (inactive)"},
      {"measurement": "GI50", "setting": "UACC-62", "value": "> 100 µM (inactive)"},
      {"measurement": "GI50", "setting": "SNB-78", "value": "> 100 µM (inactive)"}
    ]}
  ]
}
